Experimental findings from ChEMBL document CHEMBL3352267, “The design and implementation of a generic lipopeptide scanning platform to enable the identification of 'locally acting' agonists for the apelin receptor” (Bioorg Med Chem Lett, 2014) are described below.

The target in one assay is T1, Apelin receptor (Homo sapiens, UniProt P35414).
T1 sequence (P35414 whole entry): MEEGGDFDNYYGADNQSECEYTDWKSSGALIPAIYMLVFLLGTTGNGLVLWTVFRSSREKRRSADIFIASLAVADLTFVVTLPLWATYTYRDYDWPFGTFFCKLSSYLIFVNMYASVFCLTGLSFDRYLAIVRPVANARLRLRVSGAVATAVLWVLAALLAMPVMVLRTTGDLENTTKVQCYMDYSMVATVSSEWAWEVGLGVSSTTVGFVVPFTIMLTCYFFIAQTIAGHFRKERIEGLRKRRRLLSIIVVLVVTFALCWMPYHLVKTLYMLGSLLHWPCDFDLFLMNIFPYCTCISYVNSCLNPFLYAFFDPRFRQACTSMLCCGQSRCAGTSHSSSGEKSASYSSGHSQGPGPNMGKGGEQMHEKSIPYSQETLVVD
Briefly: Agonist activity at APJ receptor in HEK293 cells assessed as inhibition of forskolin-induced cAMP level incubated for 5 mins prior to forskolin challenge measured after 30 mins by TR-FRET assay. It counts as functional, cell-based. (Changes in cAMP serve as a functional read-out for many G protein-coupled receptors.)

Assay [1] addresses T2, Apelin receptor (Homo sapiens) (UniProt P35414).
T2 sequence (whole entry): T1 sequence (P35414 whole entry)
The assay can be described thus: Agonist activity at APJ receptor in HEK293 cells assessed as inhibition of forskolin-induced cAMP level incubated for 5 mins prior to forskolin challenge measured after 30 mins by TR-FRET assay relative to [pyr1]-apelin-13. It counts as functional, cell-based.

Molecules are shown by their SMILES. Residues, ends and D or L forms follow the SMILES beside them. *: point of attachment. Palmitoyl = CCCCCCCCCCCCCCCC(=O)*

The EC50 is the concentration that produces a half-maximal response. Consider `CCCCCCCCCCCCCCCC(=O)N1CCC[C@H]1C(=O)N[C@@H](CC(C)C)C(=O)N[C@@H](Cc1c[nH]c2ccccc12)C(=O)N[C@@H](C)C(=O)N[C@H](C(=O)N[C@@H](Cc1ccc(O)cc1)C(=O)N[C@H](C(=O)N[C@@H](Cc1ccc(O)cc1)C(=O)N[C@@H](CCCNC(=N)N)C(N)=O)[C@@H](C)O)[C@@H](C)O` (Palmitoyl-PLWATYTYR-NH2), for which the concentration for a half-maximal effect (EC50) on Apelin receptor was over 30 µM.

`CCCCCCCCCCCCCCCC(=O)N[C@H](C(=O)N[C@@H](C)C(=O)N[C@@H](CC(C)C)C(=O)N1CCC[C@H]1C(=O)N[C@@H](CC(C)C)C(=O)N[C@@H](Cc1c[nH]c2ccccc12)C(=O)N[C@@H](C)C(=O)N[C@H](C(=O)N[C@@H](Cc1ccc(O)cc1)C(=O)N[C@H](C(=O)N[C@@H](Cc1ccc(O)cc1)C(=O)N[C@@H](CCCNC(=N)N)C(N)=O)[C@@H](C)O)[C@@H](C)O)C(C)C` (Palmitoyl-VALPLWATYTYR-NH2): the EC50 at Apelin receptor is 0.0413 µM. In assay [1], the %max turned out to be 45%. Turning to `CCCCCCCCCCCCCCCC(=O)N[C@H](C(=O)N[C@H](C(=O)N[C@@H](C)C(=O)N1CCC[C@H]1C(=O)N[C@@H](CC(C)C)C(=O)N[C@@H](Cc1c[nH]c2ccccc12)C(=O)N[C@@H](C)C(=O)N[C@H](C(=O)N[C@@H](Cc1ccc(O)cc1)C(=O)N[C@H](C(=O)N[C@@H](Cc1ccc(O)cc1)C(=O)N[C@@H](CCCNC(=N)N)C(N)=O)[C@@H](C)O)[C@@H](C)O)[C@@H](C)O)C(C)C` (Palmitoyl-VTAPLWATYTYR-NH2), the EC50 at Apelin receptor is over 30 µM. As to `CCCCCCCCCCCCCCCC(=O)N[C@H](C(=O)N[C@H](C(=O)N[C@@H](CC(C)C)C(=O)N[C@@H](C)C(=O)N[C@@H](CC(C)C)C(=O)N[C@@H](Cc1c[nH]c2ccccc12)C(=O)N[C@@H](C)C(=O)N[C@H](C(=O)N[C@@H](Cc1ccc(O)cc1)C(=O)N[C@H](C(=O)N[C@@H](Cc1ccc(O)cc1)C(=O)N[C@@H](CCCNC(=N)N)C(N)=O)[C@@H](C)O)[C@@H](C)O)[C@@H](C)O)C(C)C` (Palmitoyl-VTLALWATYTYR-NH2), on Apelin receptor, the EC50 is over 30 µM.

As to `CCCCCCCCCCCCCCCC(=O)N[C@H](C(=O)N[C@H](C(=O)N[C@@H](CC(C)C)C(=O)N1CCC[C@H]1C(=O)N[C@@H](C)C(=O)N[C@@H](Cc1c[nH]c2ccccc12)C(=O)N[C@@H](C)C(=O)N[C@H](C(=O)N[C@@H](Cc1ccc(O)cc1)C(=O)N[C@H](C(=O)N[C@@H](Cc1ccc(O)cc1)C(=O)N[C@@H](CCCNC(=N)N)C(N)=O)[C@@H](C)O)[C@@H](C)O)[C@@H](C)O)C(C)C` (Palmitoyl-VTLPAWATYTYR-NH2), on Apelin receptor, the concentration giving a half-maximal response (EC50) was over 30 µM.

For the compound `CCCCCCCCCCCCCCCC(=O)N[C@H](C(=O)N[C@H](C(=O)N[C@@H](CC(C)C)C(=O)N1CCC[C@H]1C(=O)N[C@@H](CC(C)C)C(=O)N[C@@H](C)C(=O)N[C@@H](C)C(=O)N[C@H](C(=O)N[C@@H](Cc1ccc(O)cc1)C(=O)N[C@H](C(=O)N[C@@H](Cc1ccc(O)cc1)C(=O)N[C@@H](CCCNC(=N)N)C(N)=O)[C@@H](C)O)[C@@H](C)O)[C@@H](C)O)C(C)C` (Palmitoyl-VTLPLAATYTYR-NH2), the 50% effective concentration (EC50) at Apelin receptor was over 30 µM. The same measure, in the same setting: with `CCCCCCCCCCCCCCCC(=O)N[C@H](C(=O)N[C@H](C(=O)N[C@@H](CC(C)C)C(=O)N1CCC[C@H]1C(=O)N[C@@H](CC(C)C)C(=O)N[C@@H](Cc1c[nH]c2ccccc12)C(=O)N[C@@H](C)C(=O)N[C@H](C(N)=O)[C@@H](C)O)[C@@H](C)O)C(C)C` (Palmitoyl-VTLPLWAT-NH2) the figure was over 30 µM. For `CCCCCCCCCCCCCCCC(=O)N[C@H](C(=O)N[C@H](C(=O)N[C@@H](CC(C)C)C(=O)N1CCC[C@H]1C(=O)N[C@@H](CC(C)C)C(=O)N[C@@H](Cc1c[nH]c2ccccc12)C(=O)N[C@@H](C)C(=O)N[C@H](C(=O)N[C@@H](Cc1ccc(O)cc1)C(=O)N[C@@H](C)C(=O)N[C@@H](Cc1ccc(O)cc1)C(=O)N[C@@H](CCCNC(=N)N)C(N)=O)[C@@H](C)O)[C@@H](C)O)C(C)C` (Palmitoyl-VTLPLWATYAYR-NH2), at Apelin receptor, the 50% effective concentration (EC50) was over 30 µM.
